# Data from ChEMBL document CHEMBL1124713, “Synthesis of N-[N-(4-deoxy-4-amino-10-methylpteroyl)-4-fluoroglutamyl]- gamma-glutamate, an unusual substrate for folylpoly-gamma-glutamate synthetase and gamma-glutamyl hydrolase” (J Med Chem, 1990).
# Columns and labels:
# Type in all cases: ADME
# [1] = Ratio of relative Vmax to Km was determined
# [2] = system: FPGS (folylpolyglutamate synthetase); test: Kinetic constant(Km) was determined in FPGS-catalyzed reaction
# [3] = Kinetic constant relative(Vmax) was determined in FPGS-catalyzed reaction
Ratio [1],Km [2] [µM],Relative Vmax [3],Structure (SMILES)
0.0023,100,0.23,CN(Cc1cnc2nc(N)nc(N)c2n1)c1ccc(C(=O)NC(CC(F)C(=O)NC(CCC(=O)O)C(=O)O)C(=O)O)cc1 (centres undefined)
0.012,38,0.45,CN(Cc1cnc2nc(N)nc(N)c2n1)c1ccc(C(=O)NC(CCC(=O)NC(CCC(=O)O)C(=O)O)C(=O)O)cc1 (centres undefined)
0.024,42,1,CN(Cc1cnc2nc(N)nc(N)c2n1)c1ccc(C(=O)N[C@@H](CCC(=O)O)C(=O)O)cc1 [METHOTREXATE]
